In patent US7727530B2, “Anti-cancer composition comprising proline or its derivatives and an anti-tumour antibody” (priority 2004, dated 2010):

Key:
Assay type in all cases: cell-based
[1] = tested on: Colo205 colon cancer cells; test: MTT proliferation (chemosensitivity) assay, Colo205
SW620 colon cancer cells = test: MTT proliferation (chemosensitivity) assay, SW620
Protocol: (§1) MTT proliferation tests were performed as described. The proliferation control of both the untreated cells and the CHP pre-treated cells is set to 100%.
(§2) Unless otherwise indicated, all cell lines were obtained from the American Type Culture Collection (ATCC, Rockville, Md.) and grown to confluent monolayers in RPMI-1640 bicarbonate medium (Seromed, Berlin, Germany) in a humidified incubator (5% CO2, 37° C.). Cells were checked for mycoplasma contamination. The medium was supplemented with 10% heat-inactivated foetal bovine serum (Seromed) and 4 mM glutamine. The cells were subcultured by trypsination (0.03% trypsin containing 0.02% EDTA, three times a week). Cells numbers were counted using a TOA Sysmex microcellcounter (TOA, Tokyo, Japan).
(§3) 10^4 cells/well were distributed into 96-well microtitre plates (100 μl medium) and the compounds to be tested were added in another 100 μl volume. All compounds were diluted in triplicate or in most cases in quadruplicate. Plates were incubated under tissue culture conditions for 4 days, except those for tests investigating the relationship between application time and response, and cell viability was measured using a modified MTT assay (formazane dye formation from tetrazolium salts by mitochondrial reduction; EZ4U, Biomedica, Vienna, Austria), assessing mitochondrial activity and thereby cell viability/cell numbers. In brief, the supplied substrate was diluted in an activator solution and 20 μl of the mixture added per well for 2 hrs. The optical density was measured at 450 nm using an empty well as reference in a microplate reader (Eurogenetics, Brussels, Belgium). For each cell line, 8 wells were used to measure the MTT signal of the medium control without test substances and the proliferation in the test wells was calculated in relation to these control values set to 100%.
SW620chp4 and A431chp4 cells represent cells pre-treated with 400 μg/ml CHP for 5 days under tissue culture conditions.

[2] = tested on: A431 epidermoid carcinoma; test: MTT proliferation (chemosensitivity) assay, A431; conditions: A431 EGFR-overexpressing cell line
Protocol: as §1, §2
(§4) 10^4 cells/well were distributed into 96-well microtitre plates (100 μl medium) and the compounds to be tested were added in another 100 μl volume. All compounds were diluted in triplicate or in most cases in quadruplicate. Plates were incubated under tissue culture conditions for 4 days, except those for tests investigating the relationship between application time and response, and cell viability was measured using a modified MTT assay (formazane dye formation from tetrazolium salts by mitochondrial reduction; EZ4U, Biomedica, Vienna, Austria), assessing mitochondrial activity and thereby cell viability/cell numbers. […]

HT29 colon cancer cells = test: MTT proliferation (chemosensitivity) assay, HT29; conditions: high concentrations of Cetuximab
Protocol: as §1, §2, §4

WI38 normal fibroblasts = test: MTT proliferation (chemosensitivity) assay, WI38; conditions: W138
Protocol: as §1, §2, §4

DLD1 colon cancer cells = test: MTT proliferation (chemosensitivity) assay, DLD1; conditions: high concentrations of Cetuximab
Protocol: as §1, §2, §4

[3] = tested on: MIAPaCa2 pancreatic cancer cell line; test: MTT proliferation (chemosensitivity) assay, MIAPaCa2
Protocol: as §1, §2
as §3, with “100%. Test results were recorded between 0.3 and 1.5 optical densities for slowly and rapidly proliferating cells respectively.” for “100%.”
Experiments using pre-incubation with CHP were performed using more cell lines, namely BxPC3 and MIAPaCa2 pancreatic cancer cell lines. […]

[4] = tested on: colo250 colon cancer cell lines; test: CHP with analytical EGFR-antibody, inhibition of proliferation; conditions: read-out: Inhibition of the control in %
Protocol: as §1, §2, §4

EGFR = EGFR expression of A431 cells after CHP pre-incubation; conditions: A431 cells pre-incubated with CHP
[5] = Homo sapiens, SW-620, read-out: proliferation activity (% of control)
[6] = Homo sapiens, read-out: proliferation activity (% of control)
[7] = Homo sapiens, COLO 205, read-out: proliferation activity (% of control)

For `CCOC(=O)[C@@H]1CC(O)CN1C` (stereo partly shown) [A1.21, 4-hydroxy-1-methyl-proline ethyl ester], the “proliferation activity (% of control)” value ([1]; Colo 205 cells pre-incubated with the derivative 50 μg/ml for 5 days, then Cetuximab, Cetuximab concentrations not given) was 94.5 ± 1.7%.

For `O=C(O)[C@@H]1C[C@H](O)CN1` [CHP, Cis-4-hydroxy-L-proline], the activity at 12.5 µg/mL (SW620 colon cancer cells; [5]) was 98.7 ± 3%, the activity at 25 µg/mL (SW620 colon cancer cells; [5]) was 92.3 ± 0.9% and the activity at 50 µg/mL (SW620 colon cancer cells; [5]) was 91.9 ± 4.1%. The activity at 200 µg/mL (SW620 colon cancer cells; [5]) was 69.9 ± 2.6%, the activity at 400 µg/mL (SW620 colon cancer cells; [5]) was 51.3 ± 3.7% and the activity at 100 µg/mL (SW620 colon cancer cells; [6]) was 85.2 ± 0.7%. The “interaction with Cetuximab, direct combination” value (shortened to “interaction … direct combination”) (SW620 colon cancer cells; SW620 cells, low concentrations of CHP (6.3-50 μg/ml), Cetuximab 40 μg/ml) was “antagonistic”, the “interaction of CHP pre-incubation with Cetuximab” value [2] was “antagonistic interaction” and the “interaction … direct combination” value ([1]; C205, CHP 400 μg/ml, at 5 and […] (printed as concentrations of CHP)) was “antagonistic”. For the same compound, the “interaction … direct combination” value ([1]; C205, CHP 400 μg/ml, other concentrations) was “no significant interaction”, the “interaction Avastatin-CHP pre-incubation” value ([1]; Colo205, high concentrations of Avastatin) was “Slightly synergistic effects” and the “interaction … direct combination” value ([1]; Colo205 cells, higher concentrations of CHP (50, 200 and 400 μg/ml), Cetuximab 40 μg/ml) was “antagonistic”. The activity at 12.5 µg/mL [1, 7] was 92.2 ± 1.4%, the activity at 25 µg/mL [1, 7] was 94.4 ± 6.2% and the activity at 50 µg/mL [1, 7] was 84.2 ± 2.1%. It also gave an activity at 200 µg/mL [1, 7] of 15.7 ± 1%, an activity at 400 µg/mL [1, 7] of 9.9 ± 0.4% and an activity at 100 µg/mL [1, 6] of 45.5 ± 3.2%. The “interaction with Cetuximab, sequential combination (CHP pre-treatment)” value (shortened to “interaction with Cetuximab … (CHP pre-treatment)”) (HT29 colon cancer cells) was “antagonistic effects”, the “interaction with Cetuximab … (CHP pre-treatment)” value (WI38 normal fibroblasts) was “antagonistic effects” and the “interaction with Cetuximab … (CHP pre-treatment)” value (DLD1 colon cancer cells) was “antagonistic effects”. The “interaction CHP-Cetuximab, pre-incubation with CHP 200 μg/ml” value [3] was “antagonistic interaction”, the “interaction with Rituximab, CHP pre-treatment” value ([3]; 400 μg/ml CHP for 5 days) was “synergy” and the “interaction Avastatin-CHP pre-incubation” value ([3]; high concentrations of Avastatin) was “Slightly synergistic effects”. The inhibition at 200 µg/mL ([4]; CHP 200 μg/ml alone) was 7.3 ± 8.1%, the inhibition at 100 µg/mL ([4]; CHP100, CHP 100 μg/ml alone) was 2.9 ± 10.1% and the “expression of EGFR” value (EGFR) was “reduced expression of EGFR”.
